Paper PMC10630959, “Dissimilar Effect of P-Glycoprotein and Breast Cancer Resistance Protein Inhibition on the Distribution of Erlotinib to the Retina and Brain in Humans and Mice” (Molecular Pharmaceutics, 2023)
“Also recorded” adds a separate entry of the source. Like-named read-outs stand apart in the source and are kept apart here.

What was measured:
[1] = tested on: OCTs, OCTNs and OATPs at the mouse BBB; assay: [^3H]erlotinib in situ carotid perfusion, brain transport with SLC transporter inhibitors; type: in vivo; conditions: 100 μM fexofenadine, 5 mM TEA, 100 μM estrone-3-sulfate, 0.5 mM ergothioneine, 5 mM L-carnitine
Method: (§1) Transport of [^3H]erlotinib at the luminal BRB and BBB was measured by in situ carotid perfusion.[11],[25] With this method, the vascular composition of the brain and the eye is completely substituted by an artificial fluid, whose constitution can be modified. The perfusion fluid for the in situ carotid perfusion consisted of Krebs carbonate-buffered physiological saline with 128 mM NaCl, 24 mM NaHCO3, 4.2 mM KCl, 2.4 mM NaH2PO4, 1.5 mM CaCl2, 0.9 mM MgSO4, and 9 mM D-glucose, warmed to 37 °C and gassed with 95% O2/5% CO2 to adjust the pH to 7.40. The pH of the perfusion fluid was checked and adjusted with a digital pH meter (±0.05 pH units) immediately before perfusion. Tissue accumulation of [^3H]erlotinib was measured under trans-influx zero to determine the kinetic conditions required to measure transport solely across the membrane, separating the sucrose (vascular) from the nonsucrose (tissue parenchyma) space. […] The first membrane (luminal/vascular) delimiting the sucrose space is the only kinetic interface that affects the distribution parameters of [^3H]erlotinib.
(§2) Mice were anesthetized with ketamine and xylazine (140 and 8 mg/kg, intraperitoneal), and a catheter was inserted into the right carotid artery after ligation of the appropriate vessels. Just before perfusion, the heart was cut. Perfusion started immediately at a constant flow rate of 2.5 mL/min. […] Perfusion was terminated by decapitating the mouse after 60 s. The right eye (without the optic nerve) and the right cerebral hemisphere were removed from the skull and dissected on a freezer pack. The tissues and aliquots of perfusion fluid were weighted, digested (Solvable; PerkinElmer), and mixed with Ultima-gold XR (PerkinElmer). Dual-label counting was carried out in a Tri-Carb 2810TR instrument (PerkinElmer) to measure radioactivity (disintegrations per minute, dpm). […] Therefore, radioactivity in the whole eye was assumed to represent only the posterior segment of the eye, which comprises the retina.
(§3) Calculations were performed as described previously.[11],[25] The initial transport rate, also called brain-eye clearance, expressed as Kin (μL/s/g) was selected as the main outcome parameter. The brain and eye tissue “vascular” volume (Vv; μL/g) was estimated by using the [^14C]sucrose distribution volume. The data for any mouse for which Vv was different from the normal values[25] were excluded from the analysis.

[2] = tested on: OCTs, OCTNs and OATPs at the mouse BRB; assay: [^3H]erlotinib in situ carotid perfusion, retina transport with SLC transporter inhibitors; type: in vivo; conditions: 100 μM fexofenadine, 5 mM TEA, 100 μM estrone-3-sulfate, 0.5 mM ergothioneine, 5 mM L-carnitine
Method: as §1, §2, §3

[3] = tested on: P-gp and BCRP at the human BRB and BBB; parameters: method as in PMID 34220523; conditions: cited from earlier work
[4] = tested on: P-gp and BCRP at the mouse BBB
[5] = tested on: P-gp and BCRP at the mouse BRB
[6] = tested on: P-gp and BCRP at the human blood–retina barrier (BRB); assay: [^11C]erlotinib PET, distribution to the human retina, baseline vs P-gp and/or BCRP inhibition; type: in vivo
[7] = parameters: method as in PMID 26940368, PMID 30237210; conditions: under the PET inhibition protocols; cited from earlier work
healthy volunteers = tested on: healthy volunteers; parameters: method as in PMID 30237210; conditions: oral 1000 mg dose group; precluded inclusion of additional subjects; cited from earlier work
[8] = tested on: P-gp and BCRP at the human blood–brain barrier (BBB); assay: [^11C]erlotinib PET, distribution to human whole brain gray matter, baseline vs P-gp and/or BCRP inhibition
[9] = parameters: method as in PMID 25165131; conditions: cited from earlier work
P-gp at the BBB = tested on: P-gp at the BBB; parameters: method as in PMID 25669913; conditions: human; i.v. tariquidar co-infusion protocol; cited from earlier work
P-gp at the human BRB = tested on: P-gp at the human BRB; parameters: method as in PMID 27738009; conditions: i.v. tariquidar co-infusion; cited from earlier work
[10] = co-perfusion with 10 μM inhibitor
[11] = all combined oral erlotinib dose groups, p ≤ 0.001
[12] = oral erlotinib 300 mg, p ≤ 0.05
[13] = oral erlotinib 650 mg, p ≤ 0.05
[14] = co-perfusion with 20 μM inhibitor
[15] = all combined oral erlotinib doses, p ≤ 0.001
[16] = i.v. tariquidar infusion, p ≤ 0.05

For `C[N+](C)(C)C[C@H](O)CC(=O)[O-]` [L-carnitine], the “significant changes in brain [^3H]erlotinib transport on co-perfusion” value (“significant changes in brain” below) [1] was “None” and the “significant changes in retina [^3H]erlotinib transport on co-perfusion” value (“significant changes in retina” below) [2] was “None”.

For `CC[N+](CC)(CC)CC` [TEA, tetraethylammonium], the “significant changes in brain” value [1] was “None” and the “significant changes in retina” value [2] was “None”.

In the case of `COc1cc2c(cc1OC)CN(CCc1ccc(NC(=O)c3cc(OC)c(OC)cc3NC(=O)c3cnc4ccccc4c3)cc1)CC2` [[^11C]tariquidar], the “baseline distribution (VT) in the human retina relative to the human brain” value [3] is given as 4–5 times.

With `COc1cc2c(cc1OC)CN(CCc1ccc(NC(=O)c3cccc4c(=O)c5cccc(OC)c5[nH]c34)cc1)CC2` [elacridar] the “change in Kin of [^3H]erlotinib vs baseline” value (“change in Kin” for short) [4, 10] was “+277%” and the “increase in [^3H]erlotinib distribution to the retina (Kin) vs baseline” value ([5]; mouse BRB, co-perfusion with 10 μM inhibitor) was “+114%”.

For `C[N+](C)(C)[C@@H](Cc1c[nH]c(=S)[nH]1)C(=O)[O-]` [ergothioneine], the “significant changes in brain” value [1] was “None” and the “significant changes in retina” value [2] was “None”.

For `C#Cc1cccc(Nc2ncnc3cc(OCCOC)c(OCCOC)cc23)c1` [erlotinib], the “change in AUCR of [^11C]erlotinib vs baseline scan” value (“change in AUCR of [^11C]erlotinib” for short) [6, 11] was −31 ± 15%, the “change in VT of [^11C]erlotinib vs baseline scan” value (from here on “change in VT of [^11C]erlotinib”) [6, 11] was −41 ± 16% and the “change in AUCR of [^11C]erlotinib” value [6, 12] was −34 ± 9%. For the same compound, the “change in VT of [^11C]erlotinib” value [6, 12] was −44 ± 12%, the “change in AUCR of [^11C]erlotinib” value [6, 13] was −31 ± 21% and the “change in VT of [^11C]erlotinib” value [6, 13] was −42 ± 19%. For the same compound, the “change in Kin” value [4, 10] was “+215%”, the “change in Kin” value [4, 14] was “+340%” and the “effect of co-infusion of unlabeled erlotinib on Kin of [^3H]erlotinib in the retina” value ([5]; mouse, two different doses (10 or 20 μM)) was “did not decrease”. The “unbound plasma concentration in humans” value [7] was “approximately 0.4 μM”, the adverse events (healthy volunteers) was “skin rash” and the “change in AUCR of [^11C]erlotinib” value [8, 15] was “+15 ± 14%”. The “change in VT of [^11C]erlotinib” value [8, 15] was “+20 ± 16%”, the “change in AUCR of [^11C]erlotinib” value ([8]; oral erlotinib 300 mg) was “no statistically significant changes” and the “change in VT of [^11C]erlotinib” value ([8]; oral erlotinib 300 mg) was “no statistically significant changes”. For the same compound, the “change in AUCR of [^11C]erlotinib” value ([8]; oral erlotinib 650 mg) was “statistically significant increase” and the “change in VT of [^11C]erlotinib” value ([8]; oral erlotinib 650 mg) was “statistically significant increase”.

In the case of `C[C@]12CC[C@@H]3c4ccc(OS(=O)(=O)O)cc4CC[C@H]3[C@@H]1CCC2=O` [estrone-3-sulfate], the “significant changes in brain” value [1] is reported as “None” and the “significant changes in retina” value [2] is reported as “None”.

In the case of `COc1cc2ncnc(Nc3ccc(F)c(Cl)c3)c2cc1OCCCN1CCOCC1` [gefitinib], the pKa [9] is listed as 5.4.

For `COc1cc2c(cc1OC)CN(CCc1ccc(NC(=O)c3cc(OC)c(OC)cc3NC(=O)c3cnc4ccccc4c3)cc1)CC2` [tariquidar], the “change in AUCR of [^11C]erlotinib” value [6, 16] was −18 ± 8%, the “change in VT of [^11C]erlotinib” value [6, 16] was −25 ± 8% and the “change in Kin” value [4, 10] was “+270%”. The “change in Kin” value [4, 14] was “+280%”, the “increase in brain distribution of (R)-[^11C]verapamil” value (P-gp at the BBB) was “approximately 4 fold” and the “increase in retinal VT of (R)-[^11C]verapamil” value (P-gp at the human BRB) was 1.4 fold. The “unbound plasma concentration in humans” value [7] was about 0.03 µM, the “change in AUCR of [^11C]erlotinib” value ([8]; i.v. tariquidar infusion) was “no significant changes” and the “change in VT of [^11C]erlotinib” value ([8]; i.v. tariquidar infusion) was “did not result in any significant changes; also recorded: no significant changes”.

With `C/C=C/C[C@@H](C)C(=O)[C@H]1C(=O)N[C@@H](C(C)C)C(=O)N(C)CC(=O)N(C)[C@@H](CC(C)C)C(=O)N[C@@H](C(C)C)C(=O)N(C)[C@@H](CC(C)C)C(=O)N[C@@H](C)C(=O)N[C@H](C)C(=O)N(C)[C@@H](CC(C)C)C(=O)N(C)[C@@H](CC(C)C)C(=O)N(C)[C@@H](C(C)C)C(=O)N1C` [valspodar] the “change in Kin” value [4, 10] was “+120%”.

With [^3H]erlotinib the “Kin at the mouse BRB relative to the BBB” value ([5]; mouse, in vivo) was “approximately 2 times”.
